Measured values reported in patent US5668161A, “Substituted thiazoles for the treatment of inflammation” (G.D. Searle & Co., priority 1996, dated 1997).

Experiments:
COX II enzyme = conditions: E. Meade et al; Futaki et al; cited from earlier work
human COX-II = biological target: T1, human COX-II (Homo sapiens, UniProt P35354); assay: COX II activity in vitro, human (PGE2 by ELISA)
T1 sequence (P35354 18-604): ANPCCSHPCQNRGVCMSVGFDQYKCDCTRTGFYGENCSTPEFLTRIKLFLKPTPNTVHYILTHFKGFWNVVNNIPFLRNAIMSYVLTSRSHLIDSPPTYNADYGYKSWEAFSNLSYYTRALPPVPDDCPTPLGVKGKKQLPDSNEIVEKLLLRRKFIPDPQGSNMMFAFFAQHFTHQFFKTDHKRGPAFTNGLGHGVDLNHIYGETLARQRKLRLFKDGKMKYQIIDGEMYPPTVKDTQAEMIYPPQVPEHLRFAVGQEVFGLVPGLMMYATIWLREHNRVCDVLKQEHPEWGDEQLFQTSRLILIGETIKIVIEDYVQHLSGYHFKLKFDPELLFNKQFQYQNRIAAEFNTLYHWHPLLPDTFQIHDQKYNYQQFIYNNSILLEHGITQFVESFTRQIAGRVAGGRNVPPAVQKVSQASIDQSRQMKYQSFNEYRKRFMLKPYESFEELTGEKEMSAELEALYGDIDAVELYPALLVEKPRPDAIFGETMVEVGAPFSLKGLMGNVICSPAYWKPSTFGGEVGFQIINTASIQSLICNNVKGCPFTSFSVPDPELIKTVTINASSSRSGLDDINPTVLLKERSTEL

murine COX-I = biological target: T2, murine COX-I (Mus musculus, UniProt P22437); assay: COX I activity in vitro, murine (PGE2 by ELISA)
T2 sequence (P22437 27-602): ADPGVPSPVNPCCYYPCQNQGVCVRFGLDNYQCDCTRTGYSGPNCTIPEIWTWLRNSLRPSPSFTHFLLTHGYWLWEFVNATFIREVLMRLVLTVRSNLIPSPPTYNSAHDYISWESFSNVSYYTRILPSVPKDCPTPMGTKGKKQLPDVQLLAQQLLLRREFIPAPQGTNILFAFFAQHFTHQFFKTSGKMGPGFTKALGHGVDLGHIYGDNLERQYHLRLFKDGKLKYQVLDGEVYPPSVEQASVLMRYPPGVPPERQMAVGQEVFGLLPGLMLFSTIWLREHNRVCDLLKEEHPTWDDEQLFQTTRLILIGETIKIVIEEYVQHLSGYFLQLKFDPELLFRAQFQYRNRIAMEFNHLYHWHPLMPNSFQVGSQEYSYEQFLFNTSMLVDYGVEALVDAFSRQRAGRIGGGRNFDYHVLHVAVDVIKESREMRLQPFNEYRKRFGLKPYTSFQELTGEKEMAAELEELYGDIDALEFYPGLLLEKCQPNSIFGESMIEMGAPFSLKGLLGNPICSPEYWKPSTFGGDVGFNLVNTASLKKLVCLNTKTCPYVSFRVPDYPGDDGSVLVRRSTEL

carrageenan foot edema = assay: Rat Carrageenan Foot Pad Edema Test; type: in vivo, rat (Male Sprague-Dawley); conditions: @ 20 mg/kg body weight, oral, 3 hours after carrageenan, read-out: RAT PAW EDEMA % Inhibition
Procedure: Male Sprague-Dawley rats were selected in each group so that the average body weight was as close as possible. Rats were fasted with free access to water for over sixteen hours prior to the test. […] One hour later a subplantar injection of 0.1 mL of 1% solution of carrageenan/sterile 0.9% saline was administered and the volume of the injected foot was measured with a displacement plethysmometer connected to a pressure transducer with a digital indicator. Three hours after the injection of the carrageenan, the volume of the foot was again measured. […] Rat Carrageenan-induced Analgesia Test

[1] = test system: carrageenan-induced hyperalgesic foot withdrawal; assay: Rat Carrageenan-induced Analgesia Test; type: in vivo, rat (Male Sprague-Dawley); conditions: for inhibition at 20 mg/kg: read-out: ANALGESIA % Inhibition, @ 20 mg/kg body weight, oral, 3 hours after carrageenan
Procedure: The carrageenan foot edema test was performed with materials, reagents and procedures essentially as described by Winter, et al., (Proc. Soc. Exp. Biol. Med., 111, 544 (1962)). Male Sprague-Dawley rats were selected in each group so that the average body weight was as close as possible. Rats were fasted with free access to water for over sixteen hours prior to the test. The rats were dosed orally (1 mL) with compounds suspended in vehicle containing 0.5% methylcellulose and 0.025% surfactant, or with vehicle alone. One hour later a subplantar injection of 0.1 mL of 1% solution of carrageenan/sterile 0.9% saline was administered and the volume of the injected foot was measured with a displacement plethysmometer connected to a pressure transducer with a digital indicator. Three hours after the injection of the carrageenan, the volume of the foot was again measured. The average foot swelling in a group of drug-treated animals was compared with that of a group of placebo-treated animals and the percentage inhibition of edema was determined (Otterness and Bliven, Laboratory Models for Testing NSAIDS, in Non-steroidal Anti-Inflammatory Drugs, (J. Lombardino, ed. 1985)). […] Rat Carrageenan-induced Analgesia Test
The analgesia test using rat carrageenan was performed with materials, reagents and procedures essentially as described by Hargreaves, et al., (Pain, 32, 77 (1988)). Male Sprague-Dawley rats were treated as previously described for the Carrageenan Foot Pad Edema test. Three hours after the injection of the carrageenan, the rats were placed in a special plexiglass container with a transparent floor having a high intensity lamp as a radiant heat source, positionable under the floor. After an initial twenty minute period, thermal stimulation was begun on either the injected foot or on the contralateral uninjected foot. […] The time until the rat withdraws its foot was then measured. The withdrawal latency in seconds was determined for the control and drug-treated groups, and percent inhibition of the hyperalgesic foot withdrawal determined.

murine COX-II = biological target: T3, murine COX-II (Mus musculus, UniProt Q05769); assay: biochemical
T3 sequence (Q05769 18-604): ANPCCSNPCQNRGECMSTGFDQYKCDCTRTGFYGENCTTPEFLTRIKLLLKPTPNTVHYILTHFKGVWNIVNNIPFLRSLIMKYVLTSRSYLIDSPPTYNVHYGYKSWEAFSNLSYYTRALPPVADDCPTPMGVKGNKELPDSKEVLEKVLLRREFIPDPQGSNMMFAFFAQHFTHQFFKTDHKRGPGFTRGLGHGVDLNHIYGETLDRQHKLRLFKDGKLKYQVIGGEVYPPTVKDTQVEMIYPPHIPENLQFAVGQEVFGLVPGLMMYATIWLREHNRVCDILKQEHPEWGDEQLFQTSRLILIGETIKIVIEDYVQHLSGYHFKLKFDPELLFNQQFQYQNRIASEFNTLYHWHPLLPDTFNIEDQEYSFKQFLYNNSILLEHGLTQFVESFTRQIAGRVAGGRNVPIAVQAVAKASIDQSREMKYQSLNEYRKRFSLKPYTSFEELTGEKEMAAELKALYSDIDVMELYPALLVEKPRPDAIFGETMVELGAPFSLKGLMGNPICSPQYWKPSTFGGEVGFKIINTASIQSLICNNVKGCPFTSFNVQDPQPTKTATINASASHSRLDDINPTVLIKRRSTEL

human COX-I = human COX-I (Homo sapiens, UniProt P23219); assay: COX I activity in vitro, human (PGE2 by ELISA)
human COX-I, sequence (P23219 24-599): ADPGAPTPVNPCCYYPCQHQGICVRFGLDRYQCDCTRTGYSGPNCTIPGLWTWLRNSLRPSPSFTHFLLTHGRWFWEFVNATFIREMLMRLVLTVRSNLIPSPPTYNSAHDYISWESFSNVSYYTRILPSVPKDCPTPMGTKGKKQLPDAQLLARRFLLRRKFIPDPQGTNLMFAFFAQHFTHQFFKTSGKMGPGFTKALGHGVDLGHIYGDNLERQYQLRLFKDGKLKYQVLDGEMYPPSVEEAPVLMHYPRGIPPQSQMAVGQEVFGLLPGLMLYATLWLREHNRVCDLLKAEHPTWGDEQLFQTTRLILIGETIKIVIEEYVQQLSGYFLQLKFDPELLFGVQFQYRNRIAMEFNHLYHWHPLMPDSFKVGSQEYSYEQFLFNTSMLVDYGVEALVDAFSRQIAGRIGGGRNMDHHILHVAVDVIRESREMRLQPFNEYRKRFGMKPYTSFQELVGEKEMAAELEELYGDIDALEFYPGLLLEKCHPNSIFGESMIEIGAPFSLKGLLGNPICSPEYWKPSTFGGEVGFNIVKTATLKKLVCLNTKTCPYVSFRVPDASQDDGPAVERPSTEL

| SMILES | inhibition of the COX II enzyme (COX II enzyme) | IC50 (human COX-II) [nM] | IC50 (murine COX-I) [nM] | inhibition at 20 mg/kg (carrageenan foot edema) [%] | inhibition at 20 mg/kg [1] [%] | IC50 (murine COX-II) [nM] | IC50 (human COX-I) [nM] | inhibition at 30 mg/kg ([1]; read-out: ANALGESIA % Inhibition, a @ 30 mg/kg, oral, 3 hours after carrageenan) [%] |
| --- | --- | --- | --- | --- | --- | --- | --- | --- |
| COc1ccc2cc(CC(=O)O)ccc2c1 [6-methoxy-2-napthylacetic acid] | selectively inhibit the COX II enzyme | – | – | – | – | – | – | – |
| CS(=O)(=O)c1ccc(-c2sc(-c3ccccc3Cl)nc2-c2ccc(F)cc2)cc1 [Example 16, 2-(2-Chlorophenyl)-4-(4-fluorophenyl)-5-(4-methylsulfonylphenyl)thiazole] | – | < 100 | > 10000 | 50 | 27 | < 100 | – | – |
| CS(=O)(=O)c1ccc(-c2sc(NCc3ccccc3)nc2-c2ccc(F)cc2)cc1 [Example 29, 4-(4-Fluorophenyl)-5-(4-methylsulfonylphenyl)-2-benzylaminothiazole] | – | – | 500 | 42 | 24 | 100 | – | – |
| CS(=O)(=O)c1ccc(-c2sc(COc3cc(Cl)cc(Cl)c3)nc2-c2ccc(F)cc2)cc1 [Example 33, 2-[(3,5-Dichlorophenoxy)methyl)-4-(4-fluorophenyl)-5-[4-(methylsulfonyl)phenyl]thiazole] | – | < 100 | – | 36 | – | – | > 100000 | 34 |
| CS(=O)(=O)Nc1ccc([N+](=O)[O-])cc1OC1CCCCC1 [N-(2-cyclohexyloxy-4-nitrophenyl)methanesulfonamide] | inhibits the COX II enzyme | – | – | – | – | – | – | – |
